Tests used:
KCB cells = settings: 12-14 hours exposure
Method: The inventive cells were cryopreserved in a solution consisting of 10% DMSO and 10% FBS (fetal-bovine-serum) in MEM (minimum-essential-medium) at −80° C. The cells were thawed, washed with MEM and transferred to a 96 micro-well plate. In order to avoid evaporation of medium and consequent bias in MN frequency, the outer wells were left empty and the micro-well plate was sealed with duct tape. The inner wells were filled with cells in medium. The medium employed was composed of 86% MEM, 10% FBS, 1% non-essential-amino acids, 1% streptomycin (5 mg/ml in PBS—phosphate-buffered saline), 1% penicillin (3.125 mg/ml in PBS) and 1% amphotericin (250 μg/ml in deionized water). The cells were cultivated at 26° C. until they formed a moderately dense monolayer. The time until optimal monolayer density was achieved varied from two to five days.
Two untreated (i.e. not exposed to genotoxic compounds) columns served as internal (negative) controls of each plate.
It is possible, but not absolutely necessary, to replace the exposure medium by a recovery medium before the scoring. The scoring of micronuclei shall take place earliest 2 hours and latest 12 hours after the end of the exposure period.
In the basic test, a minimum of two pictures per well, corresponding to at least 24 pictures per concentration or control, were taken under a fluorescence microscope with an objective magnification of 40×. Normal cell nuclei, MN and fragmented nuclei in each picture were counted visually with aid of the “Cell Counter” plugin from the public domain image processing software “ImageJ”. Finally, the frequencies of MN per concentration were calculated.

human skin fibroblasts = settings: colchicine 20 ng/mL (around 0.05 μM), 72 hours; background 0.2-0.9%; cited from earlier work
human lymphocytes = settings: colchicine 0.06 μM, 24 hours; controls 1%; cited from earlier work
[1] = tested on: carp (Cyprinus carpio) erythrocytes; settings: fish injected with 0.4 mg colchicine/kg body weight; background 2%; cited from earlier work

SMILES | concentrations at which a cytotoxic threshold may have been achieved (MN frequency diminishing or stabilizing) (KCB cells) | MN frequency (human skin fibroblasts) | maximal MN frequency (KCB cells; colchicine at 0.375 μM) | maximal frequency of fragmented nuclei (KCB cells; colchicine at 0.5 μM) | MN frequency (human lymphocytes) | MN frequency [1]
O=[N+]([O-])c1cc[n+]([O-])c2ccccc12 [4NQO, 4-Nitroquinoline 1-oxide] | ≥ 600 nM | – | – | – | – | –
COc1cc2c(c(OC)c1OC)-c1ccc(OC)c(=O)cc1[C@@H](NC(C)=O)CC2 [colchicine] | higher than 0.188 μM | up to 4.7% | 1.77% | 6.85% | around 15.2% | around 10%

— patent publication US20190113503A1 (priority 2016, published 2019)
